Reference: publication PMC12563431, “The Esc(1-21)-1c Antimicrobial Peptide Inhibits a Specific Transcriptional Activator of the MexAB–OprM Efflux Pump in P. aeruginosa” (International Journal of Molecular Sciences, 2025)
Where no end group is shown, it is not given here. [ ]: non-standard residue; d: D form.

T1: Q9I5H3 (probable two-component response regulator, QseB homolog) (Pseudomonas aeruginosa, UniProt Q9I5H3 1-223)
T1 sequence: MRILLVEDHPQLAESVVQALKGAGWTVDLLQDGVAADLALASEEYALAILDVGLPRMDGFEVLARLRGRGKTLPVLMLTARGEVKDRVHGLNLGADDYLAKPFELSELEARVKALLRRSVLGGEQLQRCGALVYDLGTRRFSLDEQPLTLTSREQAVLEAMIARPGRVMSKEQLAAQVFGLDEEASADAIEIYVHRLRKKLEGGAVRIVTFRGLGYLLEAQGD

B1: His6-Q9I5H3 (natural protein)
chain: T1 sequence
notes: also called recombinant Q9I5H3 protein; PA0756; source: E. coli BL21 (pET28a), purified (His-Trap FF IMAC; gel filtration on Superdex 75)
B2: MexAB-OprM (MexA) promoter target duplex (dsDNA)
DNA 1: CGAGTAAACCTAATGTAAATGTGGTTGATC
DNA 2: GATCAACCACATTTACATTAGGTTTACTCG

Experiments:
[1] = tested on: P. aeruginosa; conditions: levels below the MIC; cited from earlier work
From the text: (§1) In the past years, we characterized the biological properties of a derivative of the frog-skin AMP esculentin-1a, namely Esc(1-21)-1c of sequence GIFSKLAGKKIKN^dLLI^dSGLKG-NH2 containing two D-amino acids, i.e., Leu14 and Ser17. […] Furthermore, very recent studies have provided new insights into the global impact of Esc (1-21)-1c on P. ...

[2] = tested on: P. aeruginosa biofilm; conditions: levels below the MIC; cited from earlier work
From the text: as §1

[3] = tested on: MexA, MexB, and OprM proteins; conditions: sub-MIC dosages; cited from earlier work
From the text: In the past years, we characterized the biological properties of a derivative of the frog-skin AMP esculentin-1a, namely Esc(1-21)-1c of sequence GIFSKLAGKKIKN^dLLI^dSGLKG-NH2 containing two D-amino acids, i.e., Leu14 and Ser17. […] Therefore, in-depth investigations are imperative to unravel the specific molecular mechanisms accounting for the downregulation of MexAB efflux pump by Esc(1-21)-1c. Here, we explored the intracellular mechanism of Esc(1-21)-1c at the molecular level by the identification of its putative interactors in P. aeruginosa. Functional proteomics approaches allowed us to ident ...

[4] = tested on: Q9I5H3–DNA complex; test: EMSA competition assay, Q9I5H3 binding to MexAB–OprM promoter DNA duplex; assay type: biochemical, P. aeruginosa; conditions: 30 μM Q9I5H3 pre-incubated with peptide (50 to 250 μM) 10 min at 25 °C, then 0.05 µM target DNA duplex for 20 min; 1.5% agarose gel, GelRed
Procedure: The putative effect of the Esc(1-21)-1c peptide on the Q9I5H3–DNA interaction was investigated by a competition assay in which the recombinant Q9I5H3 protein was pre-incubated with increasing concentrations of the peptide before adding the DNA probe. The protein–DNA complexes in the presence of different concentrations of Esc(1-21)-1c were again examined by EMSA.
The interaction of Q9I5H3 protein with DNA was investigated by EMSA experiments using the target DNA duplex as well as a control duplex-forming sequence generally used as a model of standard B-DNA duplex, the so-called Dickerson dodecamer (Supplementary Table S1). Sense and antisense oligonucleotides were annealed by incubation at 95 °C for 5 min and then gradual cooling to room temperature. Different concentrations of proteins were incubated with the DNA duplexes (0.05 µM) for 30 min at 25 °C in 20 µL of 25 mM HEPES pH 7.6, containing 50 mM KCl, 12.5 mM MgCl2, 1 mM DTT, 20% glycerol, 0.1% Triton.
For the assays, 30 μM of protein was pre-incubated with increasing concentrations of Esc(1-21)-1c for 10 min at 25 °C. Following this pre-incubation, the DNA duplex was added, and the mixture was incubated for additional 20 minutes under standard EMSA conditions.
All samples were separated on 1.5% agarose gel in Tris-borate-EDTA (TBE) running buffer at room temperature, using GelRed as dye. […]

[5] = molecular target: Q9I5H3; test: Fluorescence binding titration of Q9I5H3 dimer with Esc(1-21)-1c; parameters: species or system P. aeruginosa; conditions: intrinsic protein fluorescence, λexc 280 nm, emission 337 nm; 35 μM Q9I5H3 dimer, peptide 1.5 to 50 µM; 50 mM Tris-HCl pH 8.0, 150 mM NaCl, 20 °C; duplicate; one site specific binding fit; read-out: dissociation constant of the Esc(1-21)-1c–Q9I5H3 complex
Procedure: The interaction of the Esc(1-21)-1c peptide with Q9I5H3 was experimentally evaluated by fluorescence-based binding experiments. The dimeric form of the Q9I5H3 protein, purified by gel filtration, was titrated with increasing concentrations of Esc(1-21)-1c, and changes in the fluorescence emission of the protein were monitored (Figure 5).
Fluorescence experiments were performed on a Fluoromax-4 spectrofluorometer from Horiba Scientific, Piscataway, NJ, USA, using 1 cm optical path-length quartz cell under controlled temperature conditions (Peltier control system at 20 °C). Titrations were carried out in 50 mM Tris-HCl, pH 8.0 and 150 mM NaCl. Excitation wavelength used for the fluorescence titrations was 280 nm, and the spectra were recorded in the range 300–500 nm (slit 3 nm). Titrations were carried out at a fixed concentration (35 μM) of Q9I5H3 by adding increasing amounts of Esc(1-21)-1c peptide (from 1.5 to 50 µM), and the fluorescence emission was monitored at 337 nm. The experiments were performed in duplicate. The change in the fluorescence intensity was reported as a function of the peptide concentration and the data fitted with the “one site specific binding” equation of GraphPad Prism 9 (GraphPad Software LLC, La Jolla, CA, USA).

[6] = molecular target: B1; test: other fluorescence titration; intrinsic protein fluorescence (excitation 280 nm, emission 337 nm); 35 μM Q9I5H3 (dimeric form from gel filtration) fixed, Esc(1-21)-1c added from 1.5 to 50 µM; 50 mM Tris-HCl pH 8.0, 150 mM NaCl, 20 °C; duplicate; one site specific binding fit; conditions: both partners purified
[7] = molecular target: the molecule itself; test: SEC; Superdex 75 10/300 GL calibrated with standard proteins; 50 mM Tris-HCl pH 8.0, 150 mM NaCl; peaks at 7.8 mL and 11.5 mL; monomer and dimer
[8] = molecular target: T1, Q9I5H3 (probable two-component response …); test: EMSA; protein 5-70 uM, DNA 0.05 uM; conditions: protein: recombinant; tags: N-terminal His6 (pET28a); chain copies: 2; label: none (GelRed stain); blunt

GIFSKLAGKKIKN^dLLI^dSGLKG-NH2 [Esc(1-21)-1c, derivative of the frog-skin AMP esculentin-1a containing two D-amino acids, Leu14 and Ser17]
effect with the antibiotic Aztreonam in inhibiting growth and killing P. aeruginosa [1]: synergic effect | effect on P. aeruginosa biofilm formation [2]: capability to prevent P. aeruginosa biofilm formation | effect on MexA, MexB, and OprM proteins [3]: significant downregulatory effect | peptide concentration at which the shifted Q9I5H3–DNA complex band completely disappeared [4]: 200 µM | Kd [5]: 10 ± 0.98 µM

GIFSKLAGKKIKN[dL]LI[dS]GLKG-NH2 (also called Esc(1-21)-1c peptide; AMP) [Esc(1-21)-1c]
Kd [6]: 10 ± 0.98 µM

B1
stoichiometry N [7]: 2

B2
binding result [8]: binds
